Here are results for 39 compounds from BindingDB's records for patent WO2025049746 (Eikon Therapeutics, 2025).

Experiment [1] addresses Bifunctional 3'-5' exonuclease/ATP-dependent helicase WRN (Homo sapiens, UniProt Q14191). Description: ADP-Glo Kinase Assay. The protocol:
ATPase activity was measured using the ADP-Glo Kinase Assay following the manufacturers recommended protocol.
(ADP-Glo first removes unused ATP, then detects ADP through luciferase.)

Experiment [2] concerns the target T1, Bifunctional 3'-5' exonuclease/ATP-dependent helicase WRN [480-1251] (UniProt Q14191).
T1 construct: 480-1251
The experiment in a line: Biochemical Activity Assays.

Sequence of Bifunctional 3'-5' exonuclease/ATP-dependent helicase WRN (Q14191 whole entry): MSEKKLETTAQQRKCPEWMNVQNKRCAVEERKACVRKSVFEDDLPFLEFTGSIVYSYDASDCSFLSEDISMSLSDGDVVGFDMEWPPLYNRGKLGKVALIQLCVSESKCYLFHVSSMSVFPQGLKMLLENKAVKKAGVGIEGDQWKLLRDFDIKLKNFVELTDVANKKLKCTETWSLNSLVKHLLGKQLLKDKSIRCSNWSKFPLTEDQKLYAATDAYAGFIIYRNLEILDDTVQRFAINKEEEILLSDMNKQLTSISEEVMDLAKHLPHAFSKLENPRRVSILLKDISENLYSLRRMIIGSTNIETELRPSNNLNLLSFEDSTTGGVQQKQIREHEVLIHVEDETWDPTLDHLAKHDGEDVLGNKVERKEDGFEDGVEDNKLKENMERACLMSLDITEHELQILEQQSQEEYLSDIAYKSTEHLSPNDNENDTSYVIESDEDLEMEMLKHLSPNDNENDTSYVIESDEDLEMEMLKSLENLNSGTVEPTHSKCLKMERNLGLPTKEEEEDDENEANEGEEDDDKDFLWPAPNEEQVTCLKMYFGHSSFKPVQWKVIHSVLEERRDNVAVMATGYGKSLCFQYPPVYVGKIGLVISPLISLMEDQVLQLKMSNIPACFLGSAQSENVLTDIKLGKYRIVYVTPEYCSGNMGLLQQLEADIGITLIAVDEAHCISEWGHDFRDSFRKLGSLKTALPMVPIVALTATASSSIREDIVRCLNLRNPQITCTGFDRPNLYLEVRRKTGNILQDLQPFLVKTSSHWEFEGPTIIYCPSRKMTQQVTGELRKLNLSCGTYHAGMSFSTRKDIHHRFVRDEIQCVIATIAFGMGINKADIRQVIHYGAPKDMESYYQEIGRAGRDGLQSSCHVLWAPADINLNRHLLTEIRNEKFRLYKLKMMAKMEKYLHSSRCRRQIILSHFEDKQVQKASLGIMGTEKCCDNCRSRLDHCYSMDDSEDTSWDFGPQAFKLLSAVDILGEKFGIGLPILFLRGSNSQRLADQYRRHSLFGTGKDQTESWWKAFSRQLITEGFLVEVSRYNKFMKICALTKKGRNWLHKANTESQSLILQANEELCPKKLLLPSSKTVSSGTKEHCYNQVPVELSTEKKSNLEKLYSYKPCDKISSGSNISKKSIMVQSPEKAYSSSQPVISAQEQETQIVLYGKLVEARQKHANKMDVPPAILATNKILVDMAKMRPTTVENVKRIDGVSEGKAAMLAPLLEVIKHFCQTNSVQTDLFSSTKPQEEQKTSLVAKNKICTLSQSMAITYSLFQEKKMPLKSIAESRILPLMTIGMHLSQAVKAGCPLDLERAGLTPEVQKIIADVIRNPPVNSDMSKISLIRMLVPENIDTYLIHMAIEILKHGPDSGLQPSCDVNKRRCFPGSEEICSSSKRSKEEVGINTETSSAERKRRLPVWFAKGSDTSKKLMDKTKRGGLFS
T1 sequence (Q14191 480-1251): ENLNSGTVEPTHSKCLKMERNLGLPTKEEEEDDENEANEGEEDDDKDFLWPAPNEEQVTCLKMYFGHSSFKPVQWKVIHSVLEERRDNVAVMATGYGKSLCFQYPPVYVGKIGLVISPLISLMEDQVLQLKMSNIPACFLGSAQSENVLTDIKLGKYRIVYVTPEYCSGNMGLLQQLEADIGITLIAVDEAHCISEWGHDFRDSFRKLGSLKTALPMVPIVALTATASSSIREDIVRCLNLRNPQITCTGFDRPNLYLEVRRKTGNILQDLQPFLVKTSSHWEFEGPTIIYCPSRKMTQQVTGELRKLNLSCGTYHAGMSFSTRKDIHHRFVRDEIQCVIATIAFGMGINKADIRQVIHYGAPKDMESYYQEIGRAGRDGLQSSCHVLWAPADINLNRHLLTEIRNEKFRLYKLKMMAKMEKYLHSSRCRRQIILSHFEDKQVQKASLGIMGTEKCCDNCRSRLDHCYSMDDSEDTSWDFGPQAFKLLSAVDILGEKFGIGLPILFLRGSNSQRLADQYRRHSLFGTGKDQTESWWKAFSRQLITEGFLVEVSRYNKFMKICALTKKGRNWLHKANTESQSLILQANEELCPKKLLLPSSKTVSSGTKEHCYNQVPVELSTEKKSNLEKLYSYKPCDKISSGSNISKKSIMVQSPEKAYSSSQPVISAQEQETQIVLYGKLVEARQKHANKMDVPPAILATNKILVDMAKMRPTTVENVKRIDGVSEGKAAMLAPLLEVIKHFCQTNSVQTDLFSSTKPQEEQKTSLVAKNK

Regarding `CCc1c(N2CCN(C(=O)c3ncnc(C)c3O)CC2)c(=O)n2nc(-c3ccc4c(c3)OCC4)nc2n1CC(=O)Nc1ccc(C(F)(F)F)cc1Cl` [WO2025049746, Example 12], the figures for the IC50 in experiment [1] and in experiment [2] were 0.0349 µM and 0.0279 µM, respectively.

`CCc1c(N2CCN(C(=O)c3ncnc(C)c3O)CC2)c(=O)n2nc(-c3ccn4ncc(C)c4c3)nc2n1CC(=O)Nc1ccc(C(F)(F)F)cc1Cl` [WO2025049746, Example 272]: the values for the IC50 in experiment [1] and in experiment [2] were 0.027 µM and 0.028 µM, respectively.

Take `CCc1c(N2CCN(C(=O)c3ncnc(C)c3O)CC2)c(=O)n2nc(-c3cccc4c3OCO4)nc2n1CC(=O)Nc1ccc(SC(F)(F)F)cc1Cl` [WO2025049746, Example 400]: the IC50 – broadly, the concentration at which inhibition is half-maximal – worked out at 0.13 µM in experiment [1] and 0.103 µM in experiment [2].

Consider `CCc1c(N2CCN(C(=O)c3cccc4c3nnn4C)CC2)c(=O)n2nc(C3=CCOCC3)nc2n1CC(=O)Nc1ccc(C(F)(F)F)cc1Cl` [WO2025049746, Example 49], for which the IC50 in experiment [1] came to 0.13 µM; in experiment [2] it was 0.0467 µM.

As for `CCc1c(N2CCN(C(=O)c3ncnc(C)c3O)CC2)c(=O)n2nc(-c3cc(OC)c4nn(C)cc4c3)nc2n1CC(=O)Nc1ccc(C(F)(F)F)cc1Cl` [WO2025049746, Example 286], the 50% inhibitory concentration (IC50) in experiment [1] turned out to be 0.035 µM; in experiment [2], 0.038 µM.

As to `CCc1c(N2CCN(C(=O)c3ncnc(C)c3O)CC2)c(=O)n2nc(-c3ccc(OCC(=O)O)cc3)nc2n1CC(=O)Nc1ccc(C(F)(F)F)cc1Cl` [WO2025049746, Example 330], the IC50 was 0.025 µM in experiment [1] and 0.033 µM in experiment [2].

Take `CCc1c(N2CCN(C(=O)c3ncnc(C)c3O)CC2)c(=O)n2nc(-c3ccc4nc(C)sc4c3)nc2n1CC(=O)Nc1ccc(C(F)(F)F)cc1Cl` [WO2025049746, Example 285]: the values for the IC50 in experiment [1] and in experiment [2] were 0.026 µM and 0.029 µM, respectively.

On to `CCc1c(N2CCN(C(=O)c3ncnc(C)c3O)CC2)c(=O)n2nc(-c3cnc4[nH]cc(Cl)c4c3)nc2n1CC(=O)Nc1ccc(C(F)(F)F)cc1Cl` [WO2025049746, Example 328], for which the IC50 was 0.042 µM in experiment [1] and 0.053 µM in experiment [2].

As to `CCc1c(N2CCN(C(=O)c3cccc[n+]3[O-])CC2)c(=O)n2nc(C3=CCOCC3)nc2n1CC(=O)Nc1ccc(C(F)(F)F)cc1Cl` [WO2025049746, Example 35], the half-maximal inhibitory concentration (IC50) in experiment [1] stood at 0.13 µM; in experiment [2], 0.0684 µM.

Take `CCc1c(N2CCN(C(=O)c3ncnc(C)c3O)CC2)c(=O)n2nc(-c3ccc4c(c3C)COC4(C)C)nc2n1CC(=O)Nc1ccc(C(F)(F)F)cc1Cl` [WO2025049746, Example 214]: the results for the IC50 in experiment [1] and in experiment [2] were 0.045 µM and 0.038 µM, respectively.

As to `CCc1c(N2CCN(C(=O)c3ncnc(C)c3O)CC2)cn2nc(C3=CCOCC3)nc2c1CC(=O)Nc1ccc(C(F)(F)F)cc1Cl` [WO2025049746, Example 374], the half-inhibitory concentration (IC50) in experiment [1] and in experiment [2] was 29.7 µM each time.

As to `CCc1c(N2CCN(C(=O)c3ncnc(C)c3O)CC2)c(=O)n2nc(-c3ccc4c(c3)CCOC4)nc2n1CC(=O)Nc1ccc(OC(F)(F)Cl)cc1` [WO2025049746, Example 398], the IC50 in experiment [1] was 0.043 µM; in experiment [2], 0.034 µM.

As to `CCc1c(N2CCN(C(=O)c3ncnc(C)c3O)CC2)c(=O)n2nc(-c3ccc4c(c3)CC(C)O4)nc2n1CC(=O)Nc1ccc(C(F)(F)F)cc1Cl` (stereo not drawn) [WO2025049746, Example 168], the 50% inhibitory concentration (IC50) amounted to 0.045 µM in experiment [1] and 0.035 µM in experiment [2].

`CCc1c(N2CCN(C(=O)c3ncnc(C)c3O)CC2)c(=O)n2nc(-c3ccc4c(c3)c(C)nn4C)nc2n1CC(=O)Nc1ccc(C(F)(F)F)cc1Cl` [WO2025049746, Example 312]: the results for the IC50 in experiment [1] and in experiment [2] were 0.035 µM and 0.037 µM, respectively.

For the compound `CCc1c(N2CCN(C(=O)c3cccc4c3ncn4C)CC2)c(=O)n2nc(C3=CCOCC3)nc2n1CC(=O)Nc1ccc(C(F)(F)F)cc1Cl` [WO2025049746, Example 44], the IC50 in experiment [1] worked out at 0.0839 µM; in experiment [2], 0.0517 µM.

Take `CCc1c(N2CCN(C(=O)c3ncnc(C)c3O)CC2)c(=O)n2nc(-c3ccn4ncc(F)c4c3)nc2n1CC(=O)Nc1ccc(C(F)(F)F)cc1Cl` [WO2025049746, Example 326]: the concentration for half-maximal inhibition (IC50) in experiment [1] was 0.024 µM; in experiment [2], 0.026 µM.

As to `CCc1c(N2CCN(C(=O)c3cn(C)nc3O)CC2)c(=O)n2nc(N(C)C)nc2n1CC(=O)Nc1ccc(C(F)(F)F)cc1Cl` [WO2025049746, Example 83], the concentration for half-maximal inhibition (IC50) came to 0.0646 µM in experiment [1] and 0.0447 µM in experiment [2].

For `CCc1c(N2CCN(S(C)(=O)=O)CC2)c(=O)n2nc(C3=CCOCC3)nc2n1CC(=O)Nc1ccc(C(F)(F)F)cc1Cl` [WO2025049746, Example 59], the IC50 in experiment [1] came out at 0.0835 µM; in experiment [2], 0.0334 µM.

For the compound `CCc1c(N2CCN(C(=O)c3ncnc(C)c3O)CC2)c(=O)n2nc(-c3ccc4ncccc4c3)nc2n1CC(=O)Nc1ccc(C(F)(F)F)cc1Cl` [WO2025049746, Example 264], the IC50 in experiment [1] was found to be 0.023 µM; in experiment [2], 0.024 µM.

Take `CCc1c(N2CCN(C(=O)c3ncnc(C)c3O)CC2)c(=O)n2nc(C3=CCOCC3)nc2n1CC(=O)NC12CCC(C(F)(F)F)(CC1)CC2` [WO2025049746, Example 349]: the IC50 was determined as 1.95 µM in experiment [1] and 0.994 µM in experiment [2].

`CCc1c(N2CCN(C(=O)c3ncnc(C)c3O)CC2)c(=O)n2nc(-c3ccc4c(c3)C[C@H](C)O4)nc2n1CC(=O)Nc1ccc(C(F)(F)F)cc1Cl` [WO2025049746, Example 230]: the figures for the IC50 in experiment [1] and in experiment [2] were 0.039 µM and 0.045 µM, respectively.

For `CCc1c(N2CCN(C(=O)c3ncnc(C)c3O)CC2)c(=O)n2nc(-c3cncc4c3cnn4C)nc2n1CC(=O)Nc1ccc(C(F)(F)F)cc1Cl` [WO2025049746, Example 24], the IC50 in experiment [1] came to 0.0429 µM; in experiment [2] it was 0.0329 µM.

For the compound `CCc1c(N2CCN(C(=O)c3ncnc(C)c3O)CC2)c(=O)n2nc(-c3ccc4c(c3)CO[C@@H]4C)nc2n1CC(=O)Nc1ccc(C(F)(F)F)cc1Cl` [WO2025049746, Example 191], the IC50 in experiment [1] worked out at 0.053 µM; in experiment [2], 0.044 µM.

Regarding `CCc1c(N2CCN(C(=O)c3ncnc(C)c3O)CC2)c(=O)n2nc(-c3cc4c(cc3F)OCC4)nc2n1CC(=O)Nc1ccc(C(F)(F)F)cc1Cl` [WO2025049746, Example 169], the IC50 in experiment [1] was 0.026 µM; in experiment [2], 0.025 µM.

As to `CCc1c(N2CCN(C(=O)c3nccc4nc[nH]c34)CC2)c(=O)n2nc(N3C[C@H]4COC[C@H]4C3)nc2n1CC(=O)Nc1ccc(C(F)(F)F)cc1Cl` [WO2025049746, Example 95], the IC50 was determined as 0.0201 µM in experiment [1] and 0.0163 µM in experiment [2].

Take `CCc1c(N2CCN(C(=O)c3ncnc(C)c3O)CC2)c(=O)n2nc(-c3ccc4c(c3)NC(=O)C4)nc2n1CC(=O)Nc1ccc(C(F)(F)F)cc1Cl` [WO2025049746, Example 309]: the IC50 in experiment [1] was 0.032 µM; in experiment [2] it was 0.031 µM.

In the case of `Cc1ncnc(C(=O)N2CCN(c3c4n(c5nc(-c6ccc7c(c6)COC7(C)C)nn5c3=O)[C@@H](C(=O)Nc3ccc(C(F)(F)F)cc3Cl)C[C@@H]4C)CC2)c1O` [WO2025049746, Example 472], the IC50 in experiment [1] is 3.74 µM; in experiment [2], 4.94 µM.

With `CCc1c(N2CCN(C(=O)c3ncnc(C)c3O)CC2)c(=O)n2nc(C3=CCOCC3)nc2n1CC(=O)NC12CC(C)(C1)C2(F)F` [WO2025049746, Example 371], the IC50 in experiment [1] was 1.48 µM; in experiment [2] it was 1.11 µM.

Regarding `CCc1c(N2CCN(C(=O)c3ncnc(C)c3O)CC2)c(=O)n2nc(-c3ccc4nn(C)c(C)c4c3)nc2n1CC(=O)Nc1ccc(C(F)(F)F)cc1Cl` [WO2025049746, Example 298], the IC50 in experiment [1] turned out to be 0.031 µM; in experiment [2] it was 0.029 µM.

As for `CCc1c(N2CCN(C(=O)c3ncnc(C)c3O)CC2)c(=O)n2nc(-c3cccc4c3COC4)nc2n1CC(=O)Nc1c(Cl)cc(C(F)(F)F)c2c1CC2` [WO2025049746, Example 386], the values for the IC50 in experiment [1] and in experiment [2] were 0.089 µM and 0.06 µM, respectively.

Take `CCc1c(N2CCN(C(=O)c3ncnc(C)c3O)CC2)c(=O)n2nc(-c3ccc4c(c3)COC4)nc2n1CC(=O)Nc1ccc(SC(F)(F)F)cc1Cl` [WO2025049746, Example 409]: the IC50 in experiment [1] turned out to be 0.031 µM; in experiment [2], 0.025 µM.

`CCc1c(N2CCN(C(=O)c3ncnc(C)c3O)CC2)c(=O)n2nc(-c3cccc4oc(C)nc34)nc2n1CC(=O)Nc1ccc(C(F)(F)F)cc1Cl` [WO2025049746, Example 155]: the IC50 was 0.089 µM in experiment [1] and 0.035 µM in experiment [2].

Regarding `CCc1c(N2CCN(C(=O)c3ncnc(C)c3O)CC2)c(=O)n2nc(-c3ccn4cncc4c3)nc2n1CC(=O)Nc1ccc(C(F)(F)F)cc1Cl` [WO2025049746, Example 219], the half-inhibitory concentration (IC50) in experiment [1] and in experiment [2] was 0.019 µM throughout.

As to `Cc1ncnc(C(=O)N2CCN(c3c4n(c5nc(-c6ccc7c(c6)COC7(C)C)nn5c3=O)[C@H](C(=O)Nc3ccc(C(F)(F)F)cc3Cl)C[C@@H]4C)[C@H]3CC[C@@H]32)c1O` [WO2025049746, Example 468], the IC50 in experiment [1] was 0.0381 µM; in experiment [2], 0.0424 µM.

On to `CCc1c(N2CCN(S(=O)(=O)C3CC3)CC2)c(=O)n2nc(C3=CCOCC3)nc2n1CC(=O)Nc1ccc(C(F)(F)F)cc1Cl` [WO2025049746, Example 60], for which the IC50 in experiment [1] turned out to be 0.0385 µM; in experiment [2], 0.0445 µM.

`CCc1c(N2CCN(C(=O)c3ncnc(C)c3O)CC2)c(=O)n2nc(-c3ccc4c(c3)CCN(C)C4)nc2n1CC(=O)Nc1ccc(C(F)(F)F)cc1Cl` [WO2025049746, Example 294]: the IC50 worked out at 0.044 µM in experiment [1] and 0.048 µM in experiment [2].

As to `CCc1c(N2CCN(C(=O)c3ncnc(C)c3O)CC2)c(=O)n2nc(-c3cc(C)c4nn(C)cc4c3)nc2n1CC(=O)Nc1ccc(C(F)(F)F)cc1Cl` [WO2025049746, Example 299], the IC50 in experiment [1] came to 0.029 µM; in experiment [2], 0.031 µM.

For the compound `CCc1c(N2CCN(C(=O)c3ncnc(C)c3O)CC2)c(=O)n2nc(-c3ccc4c(c3)CSC4)nc2n1CC(=O)Nc1ccc(C(F)(F)F)cc1Cl` [WO2025049746, Example 257], the IC50 in experiment [1] came to 0.028 µM; in experiment [2] it was 0.03 µM.

With `CCc1c(N2CCN(C(=O)c3nsc(N4CCN(C)CC4)c3O)CC2)c(=O)n2nc(-c3ccc4c(c3)COC4)nc2n1CC(=O)Nc1ccc(C(F)(F)F)cc1Cl` [WO2025049746, Example 443], the IC50 in experiment [1] and in experiment [2] was 0.065 µM in each case.
